{
  "source": "patent US11246946B2",
  "about": "“Methods of treatment using ultrasmall nanoparticles to induce cell death of nutrient-deprived cancer cells via ferroptosis” (priority 2015, dated 2022)",
  "key": {"[1]": {"system": "MCF10A human mammary epithelial cells", "experiment": "Cell death (Sytox green+) by time-lapse microscopy, MCF10A", "assay_type": "cell-based", "settings": "for effect on nanoparticle-induced cell death / effect on α-MSH-PEG-C′ dot-induced cell death: AA-st plus 15 μM α-MSH-PEG-C′ dots, 40 hours; for effect on nanoparticle-induced cell death: 50 μM BHA, 200 μM ascorbic acid, 100 μM Trolox, 10 mM NAC, 5 mM GSH; for effect on α-MSH-PEG-C′ dot-induced cell death: inhibitor 1 μM", "procedure": "(§1) MEF and HT1080 cells were cultured in Dulbecco's modified Eagle's medium (DMEM) (MSKCC Media Preparation Facility) supplemented with 10% fetal bovine serum (FBS, Sigma, St. Louis, Mo.) with penicillin/streptomycin (Corning, Corning, N.Y.). MCF10A cells were cultured in DMEM/F12 (Gibco, Grand Island, N.Y.) supplemented with 5% horse serum (Atlanta Biologicals, Flowery Branch, Ga.), 20 ng/ml EGF (Peprotech, Rocky Hill, N.J.), 10 μg/ml insulin (Sigma), 0.5 μg/ml hydrocortisone (Sigma), and 100 ng/ml cholera toxin (Sigma) with penicillin/streptomycin. M21, BxPC3, H1650, and 786-O cells were cultured in RPMI-1640 (Gibco) supplemented with 10% FBS with penicillin/streptomycin. SKOV3 cells were cultured in McCoy's 5a modified medium (Gibco) supplemented with 10% FBS with penicillin/streptomycin. Amino acid-free medium was prepared by dialyzing heat-inactivated FBS (for MEF, HT1080, M21, BxPC3, H1650, and SKOV3 cells) or horse serum (for MCF10A cells) for 4 h, followed by overnight incubation at 4° C. in phosphate-buffered saline (PBS) in MWCO 3500 dialysis tubing (21-152-9; Fisherbrand, Pittsburgh, Pa.) and addition to base media prepared without amino acids. PRetro-Lamp1-GFP was introduced into M21 cells by retroviral transduction, and stable cell lines were selected with puromycin (2 μg ml^−1).\n(§2) NIS Elements software (Nikon, Melville, N.Y.) was used."}, "[2]": {"system": "mouse embryo fibroblasts (MEF)", "experiment": "Cell death (Sytox green+) by time-lapse microscopy, MEF", "assay_type": "cell-based", "settings": "wt MEFs, 100 ng/ml TNFα, 1 μg/ml CHX and 20 μM zVAD, plus 30 μM Nec-1", "procedure": "as §1, §2"}, "[3]": {"system": "ferritin heavy chain (FTH1)", "experiment": "Ferritin heavy chain western blot", "assay_type": "cell-based", "settings": "amino acid-starved cells, 24 hours; 15 μM particles, FAC 400 μM, DFO 100 μM"}, "amino acid-starved cells": {"system": "amino acid-starved cells", "settings": "amino acid-starvation conditions, FAC 400 μM"}, "glutathione": {"system": "glutathione", "experiment": "Glutathione quantification", "assay_type": "cell-based", "settings": "MCF10A, full or amino acid-free media, 24 hours; 15 μM particles or 400 μM BSO", "procedure": "For glutathione measurements, HT-1080 cells were plated on 6 cm cell culture dishes, incubated with 15 μM α-MSH-tagged nanoparticles in amino acid-free DMEM+10% dialyzed FBS and harvested approximately 2 hours before the expected time of death. As controls, cells were treated with a mix of 3 parts full or amino acid-free DMEM and 1 part H2O, or 100 μM BSO in full media. Cells were washed 3× with cold PBS and harvested through cell scraping in 50 μL cold lysis buffer. Protein concentrations were measured using the BCA assay and sample volumes were adjusted so that each had the same final protein concentration. Total glutathione was measured using the Glutathione Assay Kit (Cayman Chemicals, 703002) and reduced glutathione was measured using the QuantiChrom™ Glutathione Assay Kit (BioAssay Systems, DIGT-250) according to manufacturer's instructions."}, "lipid ROS": {"system": "lipid ROS", "experiment": "C11-BODIPY imaging of lipid ROS before cell death", "assay_type": "cell-based", "settings": "erastin 5 μM plus liproxstatin-1, 6 hours after control cells underwent cell death", "source_text": "as §2"}, "HT-1080 tumors": {"system": "HT-1080 tumors", "experiment": "HT-1080 flank xenograft, multi-dose i.v. particle treatment", "assay_type": "in vivo, mice", "procedure": "All animal experiments were performed in accordance with protocols approved by the Institutional Animal Care and Use Committee of Memorial Sloan-Kettering Cancer Center and followed NIH guidelines for animal welfare. Human melanoma (M21) xenografts were generated on the shaved flanks of immunodeficient male SCID/Beige (C.B-17/IcrHsd-Prkdc^scidLyst^bg-J) mice (6-8 weeks old; Harlan Laboratories, South Easton, Mass.). Human sarcoma HT1080 and 786-O flank xenografts[…]) were additionally generated using the same model for intravenous particle injection. Average initial tumor volumes of 45-75 mm^3 were used for all experiments.\nFive million M21 cells, cultured in serum-supplemented media, were subcutaneously implanted into the right flank of mice using a 23-gauge trocar needle to establish melanoma xenografts 2 days after particle exposure (n=3) or without exposure (n=3). […] Tumor sizes were measured using calipers over the treatment interval. […] Two perpendicular diameters (d1≤d2) of the tumor used to calculate the tumor volume (V; 4/3·π·d1^2·d2/8) were measured with calipers daily following the injection of cells.\nVolume-time profiles were compared between the two treatment groups using robust standard errors calculated using by a generalized estimating equations approach. […]"}},
  "data": [
    {"molecule": "C/C=C/[C@H]1O[C@@](O)([C@@H](C)[C@H](O)[C@H](C)[C@H]2OC(=O)/C(OC)=C/C(C)=C/[C@@H](C)[C@@H](O)[C@@H](CC)[C@@H](O)[C@H](C)C/C(C)=C/C=C/[C@@H]2OC)C[C@@H](O[C@H]2C[C@@H](O)[C@H](OC(N)=O)[C@@H](C)O2)[C@@H]1C", "note": "[concanamycin A, Concanamycin A]", "values": [
      {"measurement": "cell death morphology", "setting": "[1]; amino acid-free media, 100 nM ConA", "value": "undergo cell death with morphologic features of apoptosis"}
    ]},
    {"molecule": "CC(=O)N[C@@H](CS)C(=O)O", "note": "[N-acetylcysteine]", "values": [
      {"measurement": "effect on nanoparticle-induced cell death", "setting": "[1]", "value": "inhibited"}
    ]},
    {"molecule": "CN1C(=O)C(Cc2c[nH]c3ccccc23)NC1=S", "note": "(stereo not shown) [necrostatin-1, Necrostatin-1]", "values": [
      {"measurement": "cell death on necroptosis induction", "setting": "[2]", "value": "do not undergo cell death"}
    ]},
    {"molecule": "Ferric ammonium citrate", "values": [
      {"measurement": "ferritin heavy chain (FTH1) expression", "setting": "[3]", "value": "increased"},
      {"measurement": "percent cell death (Sytox green+)", "setting": "amino acid-starved cells", "value": "sufficient to mimic α-MSH-PEG-C′ dot-induced death"}
    ]},
    {"molecule": "C[C@@H]1C[C@@H]([C@H](O)CC2CC(=O)NC(=O)C2)C(=O)[C@@H](C)C1", "note": "[cycloheximide, Cycloheximide]", "values": [
      {"measurement": "temporal pattern of apoptotic cell death", "setting": "[1]; 50 μg/ml cycloheximide", "value": "asynchronous pattern of cell death"}
    ]},
    {"molecule": "CCOC(=O)c1ccc(NC2CCCCC2)c(N)c1", "note": "[ferrostatin-1, Ferrostatin-1]", "values": [
      {"measurement": "effect on α-MSH-PEG-C′ dot-induced cell death", "setting": "[1]", "value": "rescued cell viability"}
    ]},
    {"molecule": "N[C@@H](CCC(=O)N[C@@H](CS)C(=O)NCC(=O)O)C(=O)O", "note": "[glutathione, Glutathione]", "values": [
      {"measurement": "effect on nanoparticle-induced cell death", "setting": "[1]", "value": "inhibited"}
    ]},
    {"molecule": "O=C1O[C@H]([C@@H](O)CO)C(O)=C1O", "note": "[ascorbic acid, Ascorbic acid]", "values": [
      {"measurement": "effect on nanoparticle-induced cell death", "setting": "[1]", "value": "inhibited"}
    ]},
    {"molecule": "COc1ccc(O)c(C(C)(C)C)c1", "note": "[butylated hydroxyanisole, Butylated hydroxyanisole]", "values": [
      {"measurement": "effect on nanoparticle-induced cell death", "setting": "[1]", "value": "inhibited"}
    ]},
    {"molecule": "CCCCS(=N)(=O)CCC(N)C(=O)O", "note": "(stereo not shown) [BSO, Buthionine sulphoximine]", "values": [
      {"measurement": "reduced glutathione (GSH) levels", "setting": "glutathione", "value": "reduce glutathione levels"}
    ]},
    {"molecule": "Clc1cccc(CN=C2Nc3ccccc3NC23CCNCC3)c1", "note": "[liproxstatin-1, Liproxstatin-1]", "values": [
      {"measurement": "effect on C11-BODIPY staining induced by erastin", "setting": "lipid ROS", "value": "inhibits C11-BODIPY staining induced by erastin treatment"},
      {"measurement": "effect on α-MSH-PEG-C′ dot-induced cell death", "setting": "[1]", "value": "rescued cell viability"},
      {"measurement": "average daily tumor growth", "setting": "HT-1080 tumors; HT1080, particle-exposed tumors (three 60 μM i.v. doses) treated with daily i.p. liproxstatin-1 125 mg/kg, 10 days, 95% CI: 10.1-18.9", "value": 14.6, "unit": "mm^3"},
      {"measurement": "difference in average daily tumor growth, particles plus liproxstatin-1 vs particles alone", "setting": "HT-1080 tumors; HT1080, CI: 13.1 to 17.6, p<0.001", "value": 15.3, "unit": "mm^3"}
    ]},
    {"molecule": "Cc1c(C)c2c(c(C)c1O)CCC(C)(C(=O)O)O2", "note": "(stereo not shown) [trolox, Trolox]", "values": [
      {"measurement": "effect on nanoparticle-induced cell death", "setting": "[1]", "value": "inhibited"}
    ]}
  ]
}
